This is an account of results in patent publication US11246844B2, “Methods for inhibiting conversion of choline to trimethylamine (TMA)” (The Procter & Gamble Company, priority 2016, dated 2022).

The test system of experiment [1] is plasma TMAO. In words: Preclinical screening method: plasma TMAO in mice on 1% Choline Added diet (Example 3). The class given is in vivo, mice (C57bl/6). To be noted: Mus musculus, 72 h; mice, oral gavage once daily, 310 mg/kg/day, day 3, blood 20 hours post gavage; read-out: Remaining plasma TMAO as percentage of plasma TMAO in same day vehicle control (% of control remaining). Here is the method:
Starting at day 0, mice (C57bl/6, ˜19 g, 10 wk of age; n=5/group) were maintained in accordance with the NIH guidelines in a 12:12 hr light:dark cycle and provided with 1% Choline Added diet (Envigo custom formulation prepared, similar to Teklad Global Rodent Diet 2018) ad libitum. Concurrent with introduction of the diet mice were gavaged once daily orally using a 1.5″ 22G ball-tip curved feeding needle to administer compound in 200 μl or less of water at one or multiple of the dose 0, 1.0, 3.1, 10, 31, 100 or 310 mg/kg/day. Urine was collected once daily in the morning. Animals were restrained by hand and bladder was expressed by gentle palpation of the pelvic region. Aliquots of 1-5 μl of urine were centrifuged at 1,300×g for 5 min in a 1.5 mL conical bottom tube with a snap top, to precipitate any potential cellular debris, and supernatants were transferred to a clean screw-cap tube with o-ring seal and stored at −80° C. until analysis. Sixty microliters or less of blood was collected at 20 hours post gavage, into a heparinized capillary tube. Blood was kept at 4° C., then spun using a centrifuge (5 min in centrifuge designed to capillary tubes) to separate plasma and hematocrit within 4 hours after collection. Plasma samples were stored at −80° C.
For measurement of TMA in plasma, samples were acidified (10 mM HCl final) prior to storage at −80° C. TMAO and trimethylamine (TMA) and their d9-isotopologues were quantified using stable isotope dilution HPLC with on-line electrospray ionization tandem mass spectrometry ([…]) methods as described in (Wang Z, Klipfell E, Bennett B J, et al. (2011) Gut flora metabolism of phosphatidylcholine promotes cardiovascular disease. Nature 472:57-63) using d4(1,1,2,2)-choline, d3(methyl)-TMAO, and d3(methyl)-TMA as internal standards. Concentrations of TMAO in urine were adjusted for urinary dilution by analysis of urine creatinine concentration. Samples were taken at different days during the studies and different doses were administered to avoid side effects at higher doses of some of the compounds.

For experiment [2], the system named is Pseudomonas aeruginosa. To be noted: growth on glycine betaine and dimethyl glycine; cited from earlier work.

For `C#CC[N+](C)(C)CCO` [ID 21, N-(2-hydroxyethyl)-N,N-dimethyl-2-propyn-1-aminium bromide], the response vs control in vivo at 310 mg/kg/day in experiment [1] amounted to 0.94%. Besides, the “Growth of P. aeruginosa on GB and DMG” value in experiment [2] is “inhibited”.

As to `C#CC[N+](C)(C)CBr` [ID 41, bromomethyl-dimethyl-prop-2-ynyl-ammonium bromide], the response vs control in vivo at 310 mg/kg/day in experiment [1] turned out to be 0.23%.

`C#CC[N+](C)(C)CI` [ID 42, iodomethyl-dimethyl-prop-2-ynyl-ammonium iodide]: the response vs control in vivo at 310 mg/kg/day in experiment [1] was determined as 0.1%.
